From patent US20100021434A1, “Isolated Oligodendrocyte-Like Cells and Populations Comprising Same for the Treatment of CNS Diseases” (Ramot At Tel Aviv University Ltd., priority 2005, published 2010)

B1: Neurotrophin-3: neurotrophin 3, human polypeptide or mammalian homologue, from PeproTech (protein, UniProt P20783 139-257, looked up)
Neurotrophin-3: YAEHKSHRGEYSVCDSESLWVTDKSSAIDIRGHQVTVLGEIKTGNSPVKQYFYETRCKEARPVKNGCRGIDDKHWNSQCKTSQTYVRALTSENNKLVGWRWIRIDTSCVCALSRKIGRT
modifications: Neurotrophin-3
notes: neurotrophin 3, human polypeptide or mammalian homologue, from PeproTech

What was measured:
Type in all cases: cell-based
mouse MSCs [1] = experiment: Oligodendrocyte-like differentiation of mouse MSCs, immunostaining (A2B5, O4, MBP); settings: for Fraction of A2B5+ cells: mouse MSCs, cytokines added to growth medium; for expression of the oligodendrocyte progenitor marker A2B5 (FIGS. 4A-C): MSCs of C57-EGFP mice, NT-3 50 ng/ml, IL-1β 20 ng/ml
Procedure: (§1) Oligodendrocyte-like Differentiation of mouse MSCs: 3.2*10^3 mMSCs per well from transgenic EGFP+ C57/b1 mice (that have constitutive expression of EGFP in all their cells), were cultured in growth medium (15% FCS, 5% HS, 2 mM L-glutamine, 0.001% β-mercaptoethanol, 10 ng/ml epidermal growth factor, 100 U/ml Penicillin, 100 μg/ml Streptomycin and 12.5 U/ml Nystatin in α-DMEM), and then transferred to mediums containing different cytokines, hormones and growth factors (See table 2 hereinbelow) that play roles in oligodendrocyte lineage differentiation process, to examine the effects of those substances on the cells. The cells were incubated in the differentiation mediums for 48 hours or 6 days, and then were fixed in 4% PFA for 5 minutes in RT and 20 minutes in 4° C. and photographed for morphological changes.
The fixed cells were then blocked in 5% goat serum (GS) stained with mouse anti-A2B5 antibodies (1:200; Chemicon) overnight, 4° C., washed twice in 5% GS, and appropriate goat anti mouse second Cy3 antibody (1:500; Jackson labs) for one hour, RT, in the dark. The cells were then examined for fluorescence and photographed by fluorescence Olympus IX70-S8F2 microscope with fluorescent light source and a U-MNU filter cube (Olympus). In all immuno-staining experiments, a sample was also stained with IInd antibodies only, as control, to detect any non-specific staining.

mouse MSCs [2] = experiment: FACS analysis of differentiated mouse cells (A2B5, O4); settings: EGFP mMSCs, IL-1β 20 ng/ml in growth medium, 4 days
Procedure: FIGS. 5A-D are graphs and tables illustrating an analysis of mouse MSCs following differentiation protocol in vitro. MSCs from the bone marrow of transgenic EGFP-expressing transgenic mice (A) were cultured in differentiation medium composed of standard growth medium supplemented by IL-1β (20 ng/ml), or in standard growth medium only (control; B) for 4 days. The cells were then stained by antibodies against oligodendrocyte progenitor marker A2B5, and analyzed by flow cytometry (A2B5 staining seen as black lines). Nonspecific staining by second antibody only was used as control (nonspecific staining seen as red lines), and quantitative measurements were made from the cross points of the two lines. Quantitative measurements (D) were made either on the total population (first row), or on the population with very small-sized events omitted (see gated area in A; second row in D).
FACS analysis of differentiated mouse cells: MSCs were harvested from the tissue culture flasks following […] in differentiation medium (See Table 3, in the Results, #4), alongside undifferentiated MSCs, and centrifuged at 1000×rpm for 10 minutes at room temperature. […] After two washes in flow buffer, the cells were resuspended in 0.5 ml PBS and were studied by a fluorescence activated cell sorter (FACS) Calibur™ using an argon ion laser, adjusted to an excitation wavelength of 488 nm (Becton Dickinson). […]

mouse MSCs [3] = experiment: Oligodendrocyte-like differentiation of mouse MSCs, morphology; settings: MSCs of C57-EGFP transgenic mice, growth medium plus cytokines, 6 days
Procedure: as §1

Molecule	Fraction of A2B5+ cells (mouse MSCs [1]; 48 hours) [%]	expression of the oligodendrocyte progenitor marker A2B5 (FIGS. 4A-C) (mouse MSCs [1]; 6 days)	Fraction of A2B5+ cells (mouse MSCs [1]; 6 days) [%]	percentage A2B5+ cells (FACS analysis) (mouse MSCs [2])	cell morphology (FIGS. 3A-F) (mouse MSCs [3])
CC1=C(/C=C/C(C)=C/C=C/C(C)=C/C(=O)O)C(C)(C)CCC1 [Retinoic acid, reference compound]	0	–	–	–	–
Interleukin-1β: interleukin 1 beta, cytokine from PeproTech added to growth medium	1	acquiring expression	3.8	changes. Low	did not alter drastically
B1	1.9	acquiring expression	2.7	–	did not alter drastically
